Changes are numbered by the printed parent chain.

This note sets out measurements from PMC7691559 (Journal of Pesticide Science, 2020).

Holding throughout (test): spectrophotometric GST assay, nonlinear regression
Holding throughout (format): biochemical
Common to all, as to details: read-out: CDNB / Km; 5 mM GSH, CDNB varied

In assay [1] the target is T1, bmGSTu2 (Bombyx mori, UniProt A9XI30).
T1 sequence (A9XI30 1-233): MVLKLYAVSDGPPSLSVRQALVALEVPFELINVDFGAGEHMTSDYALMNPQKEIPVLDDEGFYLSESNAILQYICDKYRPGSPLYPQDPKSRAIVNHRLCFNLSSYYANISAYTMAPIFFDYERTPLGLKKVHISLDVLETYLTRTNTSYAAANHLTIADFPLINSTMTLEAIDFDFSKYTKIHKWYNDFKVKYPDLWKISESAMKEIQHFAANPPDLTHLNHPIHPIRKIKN

For assay [2], the target named is T2, bmGSTu2 (Bombyx mori, UniProt A9XI30, N102A).
T2 sequence (A9XI30 1-233 N102A): T1 sequence (A9XI30 1-233) with N102A

Assay [3] addresses T3, bmGSTu2 (Bombyx mori, UniProt A9XI30, S166A).
T3 sequence (A9XI30 1-233 S166A): T1 sequence (A9XI30 1-233) with S166A

In assay [4] the target is T4, bmGSTu2 (Bombyx mori, UniProt A9XI30, P162A).
T4 sequence (A9XI30 1-233 P162A): T1 sequence (A9XI30 1-233) with P162A

Turning to `O=[N+]([O-])c1ccc(Cl)c([N+](=O)[O-])c1` [CDNB, 1-chloro-2,4-dinitrobenzene], the Km in assay [1] came to 280 µM; in assay [2], 940 µM; in assay [3], 720 µM; in assay [4], 2100 µM.
